In patent US9340590B2 (priority 2011, dated 2016):
Positions of bridges follow the written chain, without caps; N, C: chain ends. Non-standard residues stand in square brackets, D forms with d. Residues, ends and D or L forms follow the SMILES beside them. Phe(3,4-(OMe)2) = COc1ccc(C[C@H](N)C(=O)O)cc1OC; Phe(3,4-Cl2) = N[C@@H](Cc1ccc(Cl)c(Cl)c1)C(=O)O; Phe(4-CF3) = N[C@@H](Cc1ccc(C(F)(F)F)cc1)C(=O)O; Bpa = N[C@@H](Cc1ccc(C(=O)c2ccccc2)cc1)C(=O)O; Phe(4-I) = N[C@@H](Cc1ccc(I)cc1)C(=O)O; Chg = N[C@H](C(=O)O)C1CCCCC1

Experiments:
Assay in all cases: cell-based
hNav1.7 = hNav1.7 (Homo sapiens, UniProt Q15858); format: cell-based; details: IonWorks Quattro, use-dependent protocol, hNav1.7; read-out: IWQ Use Nav1.7
hNav1.5 = hNav1.5 (Homo sapiens, UniProt Q14524); details: IonWorks Quattro, use-dependent protocol, hNav1.5; read-out: IWQ Use Nav1.5
hNav1.3 = hNav1.3 (Homo sapiens, UniProt Q9NY46); details: IonWorks Quattro, use-dependent protocol, hNav1.3; read-out: IWQ Use Nav1.3

Sequence of hNav1.5 (Q14524 whole entry, looked up): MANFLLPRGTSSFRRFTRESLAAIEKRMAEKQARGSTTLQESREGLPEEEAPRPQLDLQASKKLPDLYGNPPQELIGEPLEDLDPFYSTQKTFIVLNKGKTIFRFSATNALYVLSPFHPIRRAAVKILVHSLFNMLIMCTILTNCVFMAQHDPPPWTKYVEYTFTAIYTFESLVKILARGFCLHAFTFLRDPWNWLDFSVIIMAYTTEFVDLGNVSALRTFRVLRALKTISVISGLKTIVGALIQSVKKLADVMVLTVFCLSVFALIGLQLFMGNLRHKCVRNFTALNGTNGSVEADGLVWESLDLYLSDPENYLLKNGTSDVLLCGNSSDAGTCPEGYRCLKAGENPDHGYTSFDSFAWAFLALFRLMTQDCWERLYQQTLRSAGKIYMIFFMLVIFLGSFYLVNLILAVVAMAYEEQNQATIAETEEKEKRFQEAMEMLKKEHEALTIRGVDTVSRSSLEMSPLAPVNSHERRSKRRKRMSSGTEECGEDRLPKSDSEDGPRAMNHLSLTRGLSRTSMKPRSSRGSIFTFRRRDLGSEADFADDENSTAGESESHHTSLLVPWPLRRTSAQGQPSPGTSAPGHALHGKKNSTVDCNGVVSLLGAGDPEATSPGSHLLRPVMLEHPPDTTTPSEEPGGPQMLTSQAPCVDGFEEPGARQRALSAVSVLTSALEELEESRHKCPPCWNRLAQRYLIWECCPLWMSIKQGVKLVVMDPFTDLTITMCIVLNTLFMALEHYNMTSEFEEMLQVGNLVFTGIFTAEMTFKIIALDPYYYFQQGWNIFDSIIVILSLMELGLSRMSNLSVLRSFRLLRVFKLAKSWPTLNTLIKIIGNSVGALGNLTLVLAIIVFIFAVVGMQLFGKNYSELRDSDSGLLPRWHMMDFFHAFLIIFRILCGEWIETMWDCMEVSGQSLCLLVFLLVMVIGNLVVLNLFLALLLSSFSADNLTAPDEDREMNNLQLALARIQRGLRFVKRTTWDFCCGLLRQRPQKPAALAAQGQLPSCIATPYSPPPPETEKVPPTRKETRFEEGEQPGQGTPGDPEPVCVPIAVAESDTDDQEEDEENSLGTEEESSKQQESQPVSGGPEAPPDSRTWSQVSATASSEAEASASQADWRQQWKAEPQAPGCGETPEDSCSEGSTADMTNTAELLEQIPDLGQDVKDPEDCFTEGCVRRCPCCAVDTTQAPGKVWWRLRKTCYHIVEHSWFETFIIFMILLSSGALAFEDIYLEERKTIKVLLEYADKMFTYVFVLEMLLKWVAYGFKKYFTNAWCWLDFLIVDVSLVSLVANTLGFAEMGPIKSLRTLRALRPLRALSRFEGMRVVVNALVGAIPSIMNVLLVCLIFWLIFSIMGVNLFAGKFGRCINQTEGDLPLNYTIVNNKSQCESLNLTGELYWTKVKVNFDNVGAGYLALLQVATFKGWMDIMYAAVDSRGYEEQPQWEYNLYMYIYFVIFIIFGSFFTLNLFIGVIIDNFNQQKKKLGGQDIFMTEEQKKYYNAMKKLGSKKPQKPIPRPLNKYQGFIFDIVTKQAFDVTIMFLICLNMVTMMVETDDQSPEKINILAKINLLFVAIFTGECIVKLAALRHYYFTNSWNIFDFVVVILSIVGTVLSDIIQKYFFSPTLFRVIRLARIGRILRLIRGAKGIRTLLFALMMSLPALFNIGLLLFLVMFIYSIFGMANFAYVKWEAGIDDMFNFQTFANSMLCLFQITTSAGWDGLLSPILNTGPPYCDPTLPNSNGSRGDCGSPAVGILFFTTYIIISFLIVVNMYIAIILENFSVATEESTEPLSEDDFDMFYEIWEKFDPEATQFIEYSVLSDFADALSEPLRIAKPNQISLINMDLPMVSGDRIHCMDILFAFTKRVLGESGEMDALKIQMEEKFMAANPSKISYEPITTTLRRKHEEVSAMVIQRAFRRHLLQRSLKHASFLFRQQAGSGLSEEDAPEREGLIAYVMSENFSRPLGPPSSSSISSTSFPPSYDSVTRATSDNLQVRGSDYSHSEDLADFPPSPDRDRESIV
Sequence of hNav1.7 (Q15858 whole entry, looked up): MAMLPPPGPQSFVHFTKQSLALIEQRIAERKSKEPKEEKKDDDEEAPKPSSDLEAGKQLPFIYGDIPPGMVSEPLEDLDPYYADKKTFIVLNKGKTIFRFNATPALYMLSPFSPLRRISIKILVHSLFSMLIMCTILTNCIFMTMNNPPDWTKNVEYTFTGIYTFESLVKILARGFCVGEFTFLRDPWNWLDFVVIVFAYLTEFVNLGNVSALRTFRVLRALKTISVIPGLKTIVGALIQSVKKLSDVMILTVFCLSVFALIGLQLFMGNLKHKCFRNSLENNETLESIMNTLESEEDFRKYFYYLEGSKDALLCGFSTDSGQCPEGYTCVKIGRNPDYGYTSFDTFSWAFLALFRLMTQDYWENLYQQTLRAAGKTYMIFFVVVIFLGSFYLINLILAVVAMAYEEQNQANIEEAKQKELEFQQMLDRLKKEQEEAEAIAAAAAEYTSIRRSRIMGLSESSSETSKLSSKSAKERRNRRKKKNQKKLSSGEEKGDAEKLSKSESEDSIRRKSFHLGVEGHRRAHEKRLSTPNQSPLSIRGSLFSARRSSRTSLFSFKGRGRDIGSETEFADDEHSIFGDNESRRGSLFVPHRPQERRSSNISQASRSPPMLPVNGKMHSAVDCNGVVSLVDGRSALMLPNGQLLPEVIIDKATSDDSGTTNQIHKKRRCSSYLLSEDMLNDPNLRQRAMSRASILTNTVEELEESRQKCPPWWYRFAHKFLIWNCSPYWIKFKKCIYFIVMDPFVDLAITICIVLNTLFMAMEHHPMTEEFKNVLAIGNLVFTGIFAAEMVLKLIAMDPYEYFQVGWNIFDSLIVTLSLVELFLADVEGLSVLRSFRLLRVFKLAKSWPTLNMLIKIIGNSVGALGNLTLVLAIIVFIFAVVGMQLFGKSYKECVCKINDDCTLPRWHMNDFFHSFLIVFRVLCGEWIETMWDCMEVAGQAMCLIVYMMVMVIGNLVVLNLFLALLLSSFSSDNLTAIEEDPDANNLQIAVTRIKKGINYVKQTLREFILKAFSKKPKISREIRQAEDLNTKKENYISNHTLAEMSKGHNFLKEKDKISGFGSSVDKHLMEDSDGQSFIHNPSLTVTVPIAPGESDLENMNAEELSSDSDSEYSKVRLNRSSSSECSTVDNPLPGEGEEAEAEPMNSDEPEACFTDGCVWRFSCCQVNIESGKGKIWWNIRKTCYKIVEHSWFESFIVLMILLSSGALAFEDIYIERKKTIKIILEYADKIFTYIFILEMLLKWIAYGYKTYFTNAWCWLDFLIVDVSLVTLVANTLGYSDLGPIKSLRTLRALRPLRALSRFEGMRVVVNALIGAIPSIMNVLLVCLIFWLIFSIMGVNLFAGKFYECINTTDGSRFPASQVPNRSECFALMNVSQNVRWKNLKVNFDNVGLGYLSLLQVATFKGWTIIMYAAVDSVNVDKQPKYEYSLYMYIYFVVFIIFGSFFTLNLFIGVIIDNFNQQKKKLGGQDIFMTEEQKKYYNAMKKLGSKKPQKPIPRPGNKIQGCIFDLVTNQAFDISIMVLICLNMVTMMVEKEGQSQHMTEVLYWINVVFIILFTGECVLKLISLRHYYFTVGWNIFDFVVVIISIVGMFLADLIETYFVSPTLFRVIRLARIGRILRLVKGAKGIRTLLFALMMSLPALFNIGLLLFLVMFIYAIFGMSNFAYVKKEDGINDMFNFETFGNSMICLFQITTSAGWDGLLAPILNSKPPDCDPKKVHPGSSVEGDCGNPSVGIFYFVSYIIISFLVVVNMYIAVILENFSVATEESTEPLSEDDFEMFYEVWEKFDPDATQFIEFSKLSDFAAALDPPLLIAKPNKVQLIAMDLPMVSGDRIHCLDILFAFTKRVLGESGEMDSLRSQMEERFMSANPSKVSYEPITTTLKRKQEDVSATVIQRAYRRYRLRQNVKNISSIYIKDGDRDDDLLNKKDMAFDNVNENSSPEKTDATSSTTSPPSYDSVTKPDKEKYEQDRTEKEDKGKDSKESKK

## CC[C@H](C)[C@@H]1NC(=O)[C@@H]2CSSC[C@@H]3NC(=O)[C@H](C(C)C)NC(=O)[C@H](CC(C)C)NC(=O)[C@H](CC(N)=O)NC(=O)[C@@H]4CCCN4C(=O)[C@H](CCCNC(=N)N)NC(=O)[C@H](CSSC[C@H](NC(=O)[C@@H](N)CC(=O)O)C(=O)N[C@@H](CC(C)C)C(=O)NCC(=O)N[C@@H](C4CCCCC4)C(=O)N[C@@H](Cc4ccccc4)C(=O)N[C@@H](CCCNC(=N)N)C(=O)N[C@@H](CCCCN)C(=O)N2)NC(=O)[C@H](CSSC[C@@H](C(=O)N[C@@H](CCCCN)C(=O)N[C@@H](Cc2ccc(O)cc2)C(=O)N[C@H](C(=O)N[C@@H](Cc2ccccc2)C(N)=O)C(C)C)NC(=O)[C@H](Cc2c[nH]c4ccccc24)NC(=O)[C@H](CCCCN)NC(=O)[C@H](Cc2c[nH]cn2)NC(=O)[C@H]([C@@H](C)O)NC(=O)[C@H](CCCNC(=N)N)NC(=O)[C@H](CO)NC3=O)NC(=O)[C@H](CCCCN)NC(=O)[C@H](CC(=O)O)NC(=O)[C@H](CC(N)=O)NC(=O)[C@H](CC(=O)O)NC(=O)[C@@H]2CCCN2C1=O [compound 616] (H-DCLG[Chg]FRKCIPDNDKCCRPNLVCSRTHKWCKYVF-NH2; disulfide 2-17, 9-23, 16-30)
hNav1.7
  IC50: 23 nM
hNav1.5
  IC50: 6900 nM
hNav1.3
  IC50: 75 nM

## CC[C@H](C)[C@@H]1NC(=O)[C@@H]2CSSC[C@@H]3NC(=O)[C@H](C(C)C)NC(=O)[C@H](CC(C)C)NC(=O)[C@H](CC(N)=O)NC(=O)[C@@H]4CCCN4C(=O)[C@H](CCCNC(=N)N)NC(=O)[C@H](CSSC[C@H](NC(=O)[C@@H](N)CC(=O)O)C(=O)N[C@@H](CC(C)C)C(=O)NCC(=O)N[C@@H](CO)C(=O)N[C@@H](Cc4ccccc4)C(=O)N[C@@H](CCCNC(=N)N)C(=O)N[C@@H](CCCCN)C(=O)N2)NC(=O)[C@H](CSSC[C@@H](C(=O)N[C@@H](CCCCN)C(=O)N[C@@H](Cc2ccc(O)cc2)C(=O)N[C@H](C(=O)N[C@@H](Cc2ccccc2)C(N)=O)C(C)C)NC(=O)[C@H](Cc2c[nH]c4ccccc24)NC(=O)[C@H](CCCCN)NC(=O)[C@H](Cc2c[nH]cn2)NC(=O)[C@H]([C@@H](C)O)NC(=O)[C@H](CCCNC(=N)N)NC(=O)[C@H](CO)NC3=O)NC(=O)[C@H](CCCCN)NC(=O)[C@H](CC(=O)O)NC(=O)[C@H](CC(N)=O)NC(=O)[C@H](CC(=O)O)NC(=O)[C@@H]2CCCN2C1=O [compound 617] (H-DCLGSFRKCIPDNDKCCRPNLVCSRTHKWCKYVF-NH2; disulfide 2-17, 9-23, 16-30)
hNav1.7
  IC50: 760 nM
hNav1.5
  IC50: 11900 nM
hNav1.3
  IC50: 1700 nM

## CC[C@H](C)[C@@H]1NC(=O)[C@@H]2CSSC[C@@H]3NC(=O)[C@H](C(C)C)NC(=O)[C@H](CC(C)C)NC(=O)[C@H](CC(N)=O)NC(=O)[C@@H]4CCCN4C(=O)[C@H](CCCNC(=N)N)NC(=O)[C@H](CSSC[C@H](NC(=O)[C@@H](N)CC(=O)O)C(=O)N[C@@H](CC(C)C)C(=O)NCC(=O)N[C@@H](C(C)C)C(=O)N[C@@H](Cc4ccccc4)C(=O)N[C@@H](CCCNC(=N)N)C(=O)N[C@@H](CCCCN)C(=O)N2)NC(=O)[C@H](CSSC[C@@H](C(=O)N[C@@H](CCCCN)C(=O)N[C@@H](Cc2ccc(O)cc2)C(=O)N[C@H](C(=O)N[C@@H](Cc2ccccc2)C(N)=O)C(C)C)NC(=O)[C@H](Cc2c[nH]c4ccccc24)NC(=O)[C@H](CCCCN)NC(=O)[C@H](Cc2c[nH]cn2)NC(=O)[C@H]([C@@H](C)O)NC(=O)[C@H](CCCNC(=N)N)NC(=O)[C@H](CO)NC3=O)NC(=O)[C@H](CCCCN)NC(=O)[C@H](CC(=O)O)NC(=O)[C@H](CC(N)=O)NC(=O)[C@H](CC(=O)O)NC(=O)[C@@H]2CCCN2C1=O [compound 618] (H-DCLGVFRKCIPDNDKCCRPNLVCSRTHKWCKYVF-NH2; disulfide 2-17, 9-23, 16-30)
hNav1.7
  IC50: 120 nM
hNav1.5
  IC50: 9400 nM
hNav1.3
  IC50: 99 nM

## CC[C@H](C)[C@@H]1NC(=O)[C@@H]2CSSC[C@@H]3NC(=O)[C@H](C(C)C)NC(=O)[C@H](CC(C)C)NC(=O)[C@H](CC(N)=O)NC(=O)[C@@H]4CCCN4C(=O)[C@H](CCCNC(=N)N)NC(=O)[C@H](CSSC[C@H](NC(=O)[C@@H](N)CC(=O)O)C(=O)N[C@@H](CC(C)C)C(=O)NCC(=O)N[C@@H](Cc4ccc(C(=O)c5ccccc5)cc4)C(=O)N[C@@H](Cc4ccccc4)C(=O)N[C@@H](CCCNC(=N)N)C(=O)N[C@@H](CCCCN)C(=O)N2)NC(=O)[C@H](CSSC[C@@H](C(=O)N[C@@H](CCCCN)C(=O)N[C@@H](Cc2ccc(O)cc2)C(=O)N[C@H](C(=O)N[C@@H](Cc2ccccc2)C(N)=O)C(C)C)NC(=O)[C@H](Cc2c[nH]c4ccccc24)NC(=O)[C@H](CCCCN)NC(=O)[C@H](Cc2c[nH]cn2)NC(=O)[C@H]([C@@H](C)O)NC(=O)[C@H](CCCNC(=N)N)NC(=O)[C@H](CO)NC3=O)NC(=O)[C@H](CCCCN)NC(=O)[C@H](CC(=O)O)NC(=O)[C@H](CC(N)=O)NC(=O)[C@H](CC(=O)O)NC(=O)[C@@H]2CCCN2C1=O [compound 619] (H-DCLG[Bpa]FRKCIPDNDKCCRPNLVCSRTHKWCKYVF-NH2; disulfide 2-17, 9-23, 16-30)
hNav1.7
  IC50: 140 nM
hNav1.5
  IC50: 7700 nM
hNav1.3
  IC50: 42 nM

## CC[C@H](C)[C@@H]1NC(=O)[C@@H]2CSSC[C@@H]3NC(=O)[C@H](C(C)C)NC(=O)[C@H](CC(C)C)NC(=O)[C@H](CC(N)=O)NC(=O)[C@@H]4CCCN4C(=O)[C@H](CCCNC(=N)N)NC(=O)[C@H](CSSC[C@H](NC(=O)[C@@H](N)CC(=O)O)C(=O)N[C@@H](CC(C)C)C(=O)NCC(=O)N[C@@H](Cc4ccc(OC)c(OC)c4)C(=O)N[C@@H](Cc4ccccc4)C(=O)N[C@@H](CCCNC(=N)N)C(=O)N[C@@H](CCCCN)C(=O)N2)NC(=O)[C@H](CSSC[C@@H](C(=O)N[C@@H](CCCCN)C(=O)N[C@@H](Cc2ccc(O)cc2)C(=O)N[C@H](C(=O)N[C@@H](Cc2ccccc2)C(N)=O)C(C)C)NC(=O)[C@H](Cc2c[nH]c4ccccc24)NC(=O)[C@H](CCCCN)NC(=O)[C@H](Cc2c[nH]cn2)NC(=O)[C@H]([C@@H](C)O)NC(=O)[C@H](CCCNC(=N)N)NC(=O)[C@H](CO)NC3=O)NC(=O)[C@H](CCCCN)NC(=O)[C@H](CC(=O)O)NC(=O)[C@H](CC(N)=O)NC(=O)[C@H](CC(=O)O)NC(=O)[C@@H]2CCCN2C1=O [compound 620] (H-DCLG[Phe(3,4-(OMe)2)]FRKCIPDNDKCCRPNLVCSRTHKWCKYVF-NH2; disulfide 2-17, 9-23, 16-30)
hNav1.7
  IC50: 640 nM
hNav1.5
  IC50: 10400 nM
hNav1.3
  IC50: 990 nM

## CC[C@H](C)[C@@H]1NC(=O)[C@@H]2CSSC[C@@H]3NC(=O)[C@H](C(C)C)NC(=O)[C@H](CC(C)C)NC(=O)[C@H](CC(N)=O)NC(=O)[C@@H]4CCCN4C(=O)[C@H](CCCNC(=N)N)NC(=O)[C@H](CSSC[C@H](NC(=O)[C@@H](N)CC(=O)O)C(=O)N[C@@H](CC(C)C)C(=O)NCC(=O)N[C@@H](Cc4ccc(Cl)c(Cl)c4)C(=O)N[C@@H](Cc4ccccc4)C(=O)N[C@@H](CCCNC(=N)N)C(=O)N[C@@H](CCCCN)C(=O)N2)NC(=O)[C@H](CSSC[C@@H](C(=O)N[C@@H](CCCCN)C(=O)N[C@@H](Cc2ccc(O)cc2)C(=O)N[C@H](C(=O)N[C@@H](Cc2ccccc2)C(N)=O)C(C)C)NC(=O)[C@H](Cc2c[nH]c4ccccc24)NC(=O)[C@H](CCCCN)NC(=O)[C@H](Cc2c[nH]cn2)NC(=O)[C@H]([C@@H](C)O)NC(=O)[C@H](CCCNC(=N)N)NC(=O)[C@H](CO)NC3=O)NC(=O)[C@H](CCCCN)NC(=O)[C@H](CC(=O)O)NC(=O)[C@H](CC(N)=O)NC(=O)[C@H](CC(=O)O)NC(=O)[C@@H]2CCCN2C1=O [compound 621] (H-DCLG[Phe(3,4-Cl2)]FRKCIPDNDKCCRPNLVCSRTHKWCKYVF-NH2; disulfide 2-17, 9-23, 16-30)
hNav1.7
  IC50: 48 nM
hNav1.5
  IC50: 4100 nM
hNav1.3
  IC50: 5 nM

## CC[C@H](C)[C@@H]1NC(=O)[C@@H]2CSSC[C@@H]3NC(=O)[C@H](C(C)C)NC(=O)[C@H](CC(C)C)NC(=O)[C@H](CC(N)=O)NC(=O)[C@@H]4CCCN4C(=O)[C@H](CCCNC(=N)N)NC(=O)[C@H](CSSC[C@H](NC(=O)[C@@H](N)CC(=O)O)C(=O)N[C@@H](CC(C)C)C(=O)NCC(=O)N[C@@H](Cc4ccc(I)cc4)C(=O)N[C@@H](Cc4ccccc4)C(=O)N[C@@H](CCCNC(=N)N)C(=O)N[C@@H](CCCCN)C(=O)N2)NC(=O)[C@H](CSSC[C@@H](C(=O)N[C@@H](CCCCN)C(=O)N[C@@H](Cc2ccc(O)cc2)C(=O)N[C@H](C(=O)N[C@@H](Cc2ccccc2)C(N)=O)C(C)C)NC(=O)[C@H](Cc2c[nH]c4ccccc24)NC(=O)[C@H](CCCCN)NC(=O)[C@H](Cc2c[nH]cn2)NC(=O)[C@H]([C@@H](C)O)NC(=O)[C@H](CCCNC(=N)N)NC(=O)[C@H](CO)NC3=O)NC(=O)[C@H](CCCCN)NC(=O)[C@H](CC(=O)O)NC(=O)[C@H](CC(N)=O)NC(=O)[C@H](CC(=O)O)NC(=O)[C@@H]2CCCN2C1=O [compound 622] (H-DCLG[Phe(4-I)]FRKCIPDNDKCCRPNLVCSRTHKWCKYVF-NH2; disulfide 2-17, 9-23, 16-30)
hNav1.7
  IC50: 12300 nM
hNav1.5
  IC50: 12900 nM
hNav1.3
  IC50: 21000 nM

## CC[C@H](C)[C@@H]1NC(=O)[C@@H]2CSSC[C@@H]3NC(=O)[C@H](C(C)C)NC(=O)[C@H](CC(C)C)NC(=O)[C@H](CC(N)=O)NC(=O)[C@@H]4CCCN4C(=O)[C@H](CCCNC(=N)N)NC(=O)[C@H](CSSC[C@H](NC(=O)[C@@H](N)CC(=O)O)C(=O)N[C@@H](CC(C)C)C(=O)NCC(=O)N[C@@H](Cc4ccc(C(F)(F)F)cc4)C(=O)N[C@@H](Cc4ccccc4)C(=O)N[C@@H](CCCNC(=N)N)C(=O)N[C@@H](CCCCN)C(=O)N2)NC(=O)[C@H](CSSC[C@@H](C(=O)N[C@@H](CCCCN)C(=O)N[C@@H](Cc2ccc(O)cc2)C(=O)N[C@H](C(=O)N[C@@H](Cc2ccccc2)C(N)=O)C(C)C)NC(=O)[C@H](Cc2c[nH]c4ccccc24)NC(=O)[C@H](CCCCN)NC(=O)[C@H](Cc2c[nH]cn2)NC(=O)[C@H]([C@@H](C)O)NC(=O)[C@H](CCCNC(=N)N)NC(=O)[C@H](CO)NC3=O)NC(=O)[C@H](CCCCN)NC(=O)[C@H](CC(=O)O)NC(=O)[C@H](CC(N)=O)NC(=O)[C@H](CC(=O)O)NC(=O)[C@@H]2CCCN2C1=O [compound 623] (H-DCLG[Phe(4-CF3)]FRKCIPDNDKCCRPNLVCSRTHKWCKYVF-NH2; disulfide 2-17, 9-23, 16-30)
hNav1.7
  IC50: 96 nM
hNav1.5
  IC50: 7100 nM
hNav1.3
  IC50: 13 nM
